What all share (format): in vivo
One experiment relates to Botrytis cinerea. The experiment is described as follows: Test E: tomato Botrytis, preventive spray on tomato seedlings. The following applies: 50 ppm, 100 = 100% disease control, 0 = no control; for pest or weed control at 50 ppm: Botrytis cinerea, read-out: Test E disease control rating (tomato Botrytis). In outline: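 Tomato seedlings sprayed to run-off with compound (ppm) in acetone/water with 250 ppm PEG400, then inoculated next day with B. cinerea spores. Held 48 h at 20 °C in saturated atmosphere, then 3 days at 24 °C. Visual rating 0–100% disease control relative to untreated controls.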

For another experiment, the system named is Alternaria solani. The experiment is described as follows: Test F: tomato early blight, preventive spray on tomato seedlings. As to conditions: 50 ppm, 100 = 100% disease control, 0 = no control; for pest or weed control at 50 ppm: Alternaria solani, read-out: Test F disease control rating (tomato early blight). In a few lines:
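Compounds in acetone/water (50/50) with 250 ppm PEG400, dosed in ppm, sprayed to run-off on tomato seedlings; next day inoculated with A. solani spores. Held 48 h saturated at 27° C, then 3 days at 20° C; visual rating 0–100% disease control relative to controls.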

A further experiment concerns Septoria tritici. The experiment is described as follows: Test A: wheat leaf blotch, preventive spray on wheat seedlings. As to conditions: 50 ppm, 100 = 100% disease control, 0 = no control relative to controls; for pest or weed control at 50 ppm: Zymoseptoria tritici, read-out: Test A disease control rating (wheat leaf blotch). In outline: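 Compounds were suspended in acetone/water (50/50) with 250 ppm PEG400 and sprayed to run-off on wheat seedlings. The next day the seedlings were inoculated with Septoria tritici spores, held 48 h at 24 °C in saturated humidity, then 17 days at 20 °C. Disease control was rated 0–100 relative to controls.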

In experiment [1] the test system is Blumeria graminis f. sp. tritici. The experiment is described as follows: Test C: wheat powdery mildew, preventive spray on wheat seedlings. The following applies: 50 ppm, rated after 8 days, 100 = 100% disease control, 0 = no control; for pest or weed control at 50 ppm: Blumeria graminis, 192 h, read-out: Test C disease control rating (wheat powdery mildew). In outline:
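Compound dissolved in acetone (3% of final volume), then suspended in 50/50 acetone/water with 250 ppm PEG400 and sprayed to run-off on wheat seedlings. Inoculated next day with B. graminis f. sp. tritici spore dust, kept 8 days at 20° C; visual rating, 100 = full control, 0 = none, relative to controls.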

The next experiment deals with Phakopsora pachyrhizi. The experiment is described as follows: Test D: Asian soybean rust, preventive spray on soybean seedlings. The following applies: 50 ppm, 100 = 100% disease control, 0 = no control; for pest or weed control at 50 ppm: Phakopsora pachyrhizi, read-out: Test D disease control rating (Asian soybean rust). In a few lines: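 Soybean seedlings sprayed to run-off with compound suspension (ppm, in 50/50 acetone/water with 250 ppm PEG400), inoculated next day with P. pachyrhizi spores, held 24 h saturated at 22°C then 8 days at 22°C. Visual rating 0-100% disease control relative to controls.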

The test system of experiment [2] is Puccinia recondita f. sp. tritici. The experiment is described as follows: Test B: wheat leaf rust, preventive spray on wheat seedlings. The following applies: 50 ppm, 100 = 100% disease control, 0 = no control relative to controls; for pest or weed control at 50 ppm: read-out: Test B disease control rating (wheat leaf rust). In a few lines: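 Compounds in acetone/water (50/50) with 250 ppm PEG400, sprayed to run-off on wheat seedlings at stated ppm; inoculated next day with P. recondita spores. Held 24 h saturated at 20° C., then 7 days in growth chamber at 20° C.; rating 0–100 = % disease control vs controls.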

The structures appear in SMILES notation.

In the case of `CCc1nn(C)c(Nc2ccc(C)cc2[N+](=O)[O-])c1-c1ccc(F)cc1Cl` [Compound 174], in the experiment on Botrytis cinerea, the “Test E disease control rating (tomato Botrytis)” value (“Test E disease control rating” for short) is listed as 99%. The “Test F disease control rating (tomato early blight)” value (shortened to “Test F disease control rating”) in the experiment on Alternaria solani is recorded as 39%. The “Test A disease control rating (wheat leaf blotch)” value (“Test A disease control rating” below) with Septoria tritici was 100%. Also, in experiment [1], the “Test C disease control rating (wheat powdery mildew)” value (“Test C disease control rating” below) is 92%. In addition, in the experiment on Phakopsora pachyrhizi, the “Test D disease control rating (Asian soybean rust)” value (shortened to “Test D disease control rating”) is given as 0%. Besides, the “Test B disease control rating (wheat leaf rust)” value (shortened to “Test B disease control rating”) in experiment [2] is given as 95%.
For `Cn1nc(C#N)c(-c2ccc(F)cc2Cl)c1Nc1c(F)cccc1[N+](=O)[O-]` [Compound 122], the “Test E disease control rating” value in the experiment on Botrytis cinerea was found to be 100%. The “Test F disease control rating” value in the experiment with Alternaria solani was 99%. The “Test A disease control rating” value in the experiment with Septoria tritici came out at 100%. In addition, the “Test C disease control rating” value in experiment [1] came to 94%. Moreover, the “Test D disease control rating” value in the experiment with Phakopsora pachyrhizi is on record as 0%. Besides, the “Test B disease control rating” value in experiment [2] came to 100%.
Regarding `Cc1nn(C)c(Nc2c(F)cccc2[N+](=O)[O-])c1-c1c(F)cccc1Cl` [Compound 25], the “Test E disease control rating” value in the experiment with Botrytis cinerea was found to be 100%. Further, in the experiment with Alternaria solani, the “Test F disease control rating” value was 98%. Further, the “Test A disease control rating” value with Septoria tritici came out at 100%. For the same molecule, the “Test C disease control rating” value in experiment [1] is 99%. Besides, the “Test D disease control rating” value in the experiment with Phakopsora pachyrhizi is recorded as 98%. Moreover, the “Test B disease control rating” value in experiment [2] was 100%.
With `CCOc1ccc(Nc2c(-c3ccc(F)cc3Cl)c(C)nn2C)c([N+](=O)[O-])c1` [Compound 103], the “Test E disease control rating” value in the experiment on Botrytis cinerea is reported as 83%. Also, the “Test F disease control rating” value with Alternaria solani is 0%. In addition, the “Test A disease control rating” value in the experiment on Septoria tritici is given as 97%. Also, the “Test C disease control rating” value in experiment [1] came to 50%. In addition, the “Test D disease control rating” value in the experiment with Phakopsora pachyrhizi amounted to 0%. Also, the “Test B disease control rating” value in experiment [2] is listed as 80%.
`Cc1nn(C)c(Nc2ccccc2[N+](=O)[O-])c1-c1c(F)cc(F)cc1Cl` [Compound 148]: in the experiment with Botrytis cinerea, the “Test E disease control rating” value is 99%. Also, in the experiment with Alternaria solani, the “Test F disease control rating” value was determined as 100%. In addition, in the experiment with Septoria tritici, the “Test A disease control rating” value amounted to 100%. Also, the “Test C disease control rating” value in experiment [1] is 98%. Besides, in the experiment on Phakopsora pachyrhizi, the “Test D disease control rating” value was determined as 13%. Moreover, in experiment [2], the “Test B disease control rating” value turned out to be 99%.
For the molecule `COc1ccc(Nc2c(-c3ccc(C#N)cc3Br)c(C)nn2C)c([N+](=O)[O-])c1` [Compound 180], in the experiment on Botrytis cinerea, the “Test E disease control rating” value turned out to be 99%. Besides, the “Test F disease control rating” value in the experiment on Alternaria solani is 98%. For the same molecule, the “Test A disease control rating” value with Septoria tritici was 100%. In addition, the “Test C disease control rating” value in experiment [1] is recorded as 79%. Moreover, the “Test D disease control rating” value in the experiment with Phakopsora pachyrhizi amounted to 0%. The “Test B disease control rating” value in experiment [2] was 98%.
In the case of `COc1ccc(-c2c(C)nn(C)c2Nc2c(Cl)cc(F)cc2[N+](=O)[O-])c(Cl)c1` [Compound 73, N-(2-chloro-4-fluoro-6-nitrophenyl)-4-(2-chloro-4-methoxyphenyl)-1,3-dimethyl-1H-pyrazol-5-amine], the pest or weed control at 50 ppm in the experiment on Botrytis cinerea came out at 99%; with Alternaria solani, 97%; in the experiment on Septoria tritici, 100%; in experiment [1], 96%; with Phakopsora pachyrhizi, 98%; in experiment [2], 100%.
Consider `CCn1nc(C)c(-c2ccc(F)cc2Cl)c1Nc1c(F)cccc1[N+](=O)[O-]` [Compound 71], for which the “Test E disease control rating” value in the experiment on Botrytis cinerea was 99%. Also, the “Test F disease control rating” value in the experiment on Alternaria solani is 98%. The “Test A disease control rating” value in the experiment on Septoria tritici was 100%. Moreover, the “Test C disease control rating” value in experiment [1] is 99%. Moreover, the “Test D disease control rating” value in the experiment on Phakopsora pachyrhizi is reported as 82%. In addition, the “Test B disease control rating” value in experiment [2] was found to be 100%.
As for `Cc1nn(C)c(Nc2c(Cl)cc(F)cc2[N+](=O)[O-])c1-c1ccc(F)cc1Cl` [Compound 19, N-(2-chloro-4-fluoro-6-nitrophenyl)-4-(2-chloro-4-fluorophenyl)-1,3-dimethyl-1H-pyrazol-5-amine], the pest or weed control at 50 ppm in the experiment with Botrytis cinerea turned out to be 100%; in the experiment on Alternaria solani, 99%; with Septoria tritici, 100%; in experiment [1], 100%; in the experiment on Phakopsora pachyrhizi, 98%; in experiment [2], 100%.
In the case of `COc1ccc(-c2c(C)nn(C)c2Nc2c(F)cc(F)cc2[N+](=O)[O-])c(Cl)c1` [Compound 64], in the experiment with Botrytis cinerea, the “Test E disease control rating” value was determined as 98%. Also, the “Test F disease control rating” value in the experiment with Alternaria solani is reported as 99%. Further, the “Test A disease control rating” value in the experiment with Septoria tritici was 100%. Also, the “Test C disease control rating” value in experiment [1] worked out at 98%. Further, the “Test D disease control rating” value in the experiment with Phakopsora pachyrhizi stood at 97%. Besides, the “Test B disease control rating” value in experiment [2] was 100%.
As to `COc1cc(F)c(Nc2c(-c3c(F)cccc3Cl)c(C)nn2C)c([N+](=O)[O-])c1` [Compound 23, 4-(2-chloro-6-fluorophenyl)-N-(2-fluoro-4-methoxy-6-nitrophenyl)-1,3-dimethyl-1H-pyrazol-5-amine], the pest or weed control at 50 ppm with Botrytis cinerea stood at 97%; in the experiment on Alternaria solani, 99%; in the experiment with Septoria tritici, 100%; in experiment [1], 100%; in the experiment on Phakopsora pachyrhizi, 99%; in experiment [2], 100%.
On to `Cc1cccc([N+](=O)[O-])c1Nc1c(-c2ccc(F)cc2Br)c(C)nn1C` [Compound 42], for which the “Test E disease control rating” value in the experiment on Botrytis cinerea is 91%. Further, in the experiment on Alternaria solani, the “Test F disease control rating” value is reported as 0%. Besides, the “Test A disease control rating” value with Septoria tritici is recorded as 100%. The “Test C disease control rating” value in experiment [1] stood at 96%. Besides, the “Test D disease control rating” value with Phakopsora pachyrhizi is 0%. Besides, the “Test B disease control rating” value in experiment [2] was found to be 100%.
As for `Cc1nn(C)c(Nc2c(F)cc(Cl)cc2[N+](=O)[O-])c1-c1ccc(F)cc1Br` [Compound 131], the “Test E disease control rating” value in the experiment on Botrytis cinerea came to 99%. In addition, in the experiment with Alternaria solani, the “Test F disease control rating” value was 100%. Further, in the experiment with Septoria tritici, the “Test A disease control rating” value turned out to be 100%. The “Test C disease control rating” value in experiment [1] is 99%. In the experiment with Phakopsora pachyrhizi, the “Test D disease control rating” value was 80%. Further, the “Test B disease control rating” value in experiment [2] turned out to be 100%.
As for `COc1cc(F)c(-c2c(C)nn(C)c2Nc2c(Cl)cccc2[N+](=O)[O-])c(F)c1` [Compound 160], in the experiment with Botrytis cinerea, the “Test E disease control rating” value amounted to 100%. For the same molecule, the “Test F disease control rating” value with Alternaria solani came to 99%. In addition, the “Test A disease control rating” value in the experiment with Septoria tritici is reported as 98%. Moreover, the “Test C disease control rating” value in experiment [1] is given as 96%. The “Test D disease control rating” value in the experiment on Phakopsora pachyrhizi was found to be 86%. Also, the “Test B disease control rating” value in experiment [2] is 100%.
`Cc1nn(C)c(Nc2c(F)cc(Cl)cc2[N+](=O)[O-])c1-c1ccc(F)cc1Cl` [Compound 121, N-(4-chloro-2-fluoro-6-nitrophenyl)-4-(2-chloro-4-fluorophenyl)-1,3-dimethyl-1H-pyrazol-5-amine]: the pest or weed control at 50 ppm in the experiment on Botrytis cinerea was 100%; in the experiment with Alternaria solani, 100%; in the experiment with Septoria tritici, 100%; in experiment [1], 100%; with Phakopsora pachyrhizi it was 99%; in experiment [2], 100%.
`Cc1cccc([N+](=O)[O-])c1Nc1c(-c2ccc(F)cc2Cl)c(C)nn1C` [Compound 117]: the “Test E disease control rating” value with Botrytis cinerea was determined as 99%. Further, in the experiment on Alternaria solani, the “Test F disease control rating” value is given as 76%. Further, the “Test A disease control rating” value in the experiment on Septoria tritici came out at 99%. Also, the “Test C disease control rating” value in experiment [1] came to 95%. In addition, the “Test D disease control rating” value in the experiment with Phakopsora pachyrhizi came out at 0%. Moreover, in experiment [2], the “Test B disease control rating” value worked out at 100%.

The values above are taken from US12398107B2, “Fungicidal nitroanilino substituted pyrazoles” (FMC Corporation, priority 2018, dated 2025).
